How the values were obtained:
Type in all cases: cell-based, human
[1] = tested on: p38 MAPK; test: Phosphorylation of p38 MAPK in monocytes, Western blot; conditions: LPS-stimulated monocytes, 1 hour; FIG. 5B
Experimental: (§1) For detection of the levels of activated ERK1/2 and p38 MAPKs monocytes were cultured in DMEM at 5×10^6/ml in suspension. Ten to 60 minutes after the addition of reagents, the cells were pelleted and lysed with SDS loading buffer (prepared as described above). The supernatants were loaded onto 12% Tris-glycine gels. The blots were then incubated overnight with mouse anti-human antibodies against the phosphorylated forms of ERK1/2 and p38 and with rabbit anti-human antibodies against total ERK1/2 and p38 as a measure of equal loading of the gels.
(§2) Western blots for MMP-1, MAPKs and COX-2 were incubated overnight with primary antibodies, washed and analyzed by the addition of Alexa Fluor 680 goat anti-rabbit or Alexa Fluor 750 goat anti-mouse antibodies (Molecular Probes® Inc., Eugene, Oreg.) and the infrared fluorescence detected with the Odyssey infrared imaging system (LI-COR, Lincoln, Nebr.). Densitometry analysis of the bands on the Western blots was determined with the LI-COR software analysis program or the ImageQuant software analysis program (Amersham Biosciences, Piscataway, N.J.).

[2] = tested on: MMP-1 production by monocytes; test: MMP-1 protein in monocyte conditioned media, Western blot
Description: Reagents. High molecular weight urokinase plasminogen activator (HMW-uPA), low molecular weight uPA (LMW-uPA), amino-terminal fragment-uPA (ATF-uPA) and α2-antiplasmin were obtained from American Diagnostica Inc. (Stamford, Conn.). […] LPS Escherichia coli 05:B55 was purchased from Sigma-Aldrich (St. Louis, Mo.). ERK1/2/phospho-ERK1/2 and p38/phospho-p38 antibodies were from Cell Signaling Technology (Beverly, Mass.). MMP-1 antibodies used were rabbit polyclonal antibodies against MMP-1 (provided by Dr. Henning Birkedal-Hansen, NIDCR/NIH) and a mouse anti-human MMP-1 monoclonal antibody (Chemicon International, Inc., Temecula, Calif.). Rabbit anti-COX-2 antibodies were obtained from Cayman Chemical Company (Ann Arbor, Mich.) and mouse anti-β-actin antibodies were from Chemicon International, Inc., Temecula, Calif.). Purification and culture of human monocytes. Human peripheral blood cells were obtained by leukapheresis of non-disease subjects. The monocyte fraction was purified by counter-flow centrifugal elutriation as previously described (Wahl et al., Cell Immunol. 85: 373-383, 1984; and Wahl et al., “In Current Protocols in Immunology,” eds. John Wiley & Sons, Inc. NY. Vol. 2: 7.6A.1-7.6A.10., 2005) and contained greater than 90% monocytes as determined by morphology and flow cytometry. Monocytes were cultured in serum-free Dulbecco Modified Eagle's Medium (DMEM; Cambrex, Walkersville, Md.) supplemented with 2 mM L-glutamine (Mediatech, Herndon, Va.) and 10 μg/ml gentamycin (Cambrex, Walkersville, Md.). Western blot analysis of MMP-1, MAPKs and COX-2. For MMP-1 determination, purified monocytes were cultured at a density of 5×10^6/ml of DMEM in 12 well polystyrene plates (Corning Incorporated Life Sciences, Lowell, Mass.). After 36 to 48 hours of treatment with reagents, the conditioned media were centrifuged and collected. Bovine serum albumin (BSA; 40 μg/ml) was added to the culture supernatants prior to the precipitation of the proteins with cold ethanol (final concentration, 60%) for at least 15 min at −70° C. The proteins were pelleted by microcentrifuging at 20,800×g for 12 min, washed with ethanol, and lyophilized by rotary evaporation. The lyophilized proteins were resuspended in sodium dodecyl sulfate (SDS)-Laemmli buffer [500 mM Tris-HCl (pH 6.8)/10% SDS/0.01% bromophenol-blue/20% glycerol], reduced with 5% β-mercaptoethanol, heated for 4 min at 100° C., and electrophoresed on a 10 or 12% Tris-glycine gel in SDS running buffer [25 mM Tris-HCl (pH 8.3)/192 mM glycine/[…]]. The proteins were transferred onto 0.45 μm nitrocellulose in a buffer containing 25 mM Tris-HCl (pH 8.3)/192 mM glycine/20% methanol and blocked with 50 mM Tris-HCl (pH 7.5)/150 mM NaCl (TBS) containing 5% nonfat dry milk for at least 1 hour. The blots were then incubated overnight with antibodies against MMP-1.
as §2

[3] = tested on: ERK1/2; test: Phosphorylation of ERK1/2 in monocytes, Western blot; conditions: LPS-stimulated monocytes, 1 hour; FIG. 5B
Experimental: as §1, §2

[4] = tested on: cyclooxygenase-2 (COX-2); test: COX-2 protein in monocyte membranes, Western blot; conditions: LPS 25 ng/ml; HMW-uPA 30 nM or plasmin 360 nM; FIG. 4A
Experimental: Cell protein isolation for the determination of COX-2 protein levels were prepared as previously described (Zhang et al., J. Clin. Invest. 99: 894-900, 1997). Briefly, 20×10^6 monocytes in 4 ml of DMEM were cultured in suspension in 17 ml polypropylene tubes overnight in the presence or absence of reagents. The cells were then washed in phosphate buffered saline with protease inhibitors. The cell pellets were resuspended in 250 mM sucrose containing protease inhibitors and sonicated (Ultrasonic Cell Disrupter, Kontes, American Instrument Exchange, Inc., Haverhill, Mass.). Nuclear debris and unbroken cells were pelleted at 100×g and the supernatant microfuged at 1,500×g to pellet cell membrane proteins. Equal amounts of protein were loaded onto 12% Tris Glycine gels. […] Equal loading of samples was measured with mouse anti-β-actin antibodies.
as §2

[5] = tested on: PGE2; test: PGE2 in monocyte culture supernatants, ELISA; conditions: LPS-stimulated monocytes, 24 hours; FIG. 4B
Experimental: FIGS. 4A-4C illustrate that stimulation of MMP-1 by HMW-uPA and plasmin is mediated in part by PGE2. FIG. 4A is a digital image depicting cyclooxygenase-2 (COX-2) protein levels detected in monocyte cultures determined by Western blot analysis in the presence of HMW-uPA (30 nM) or plasmin (360 nM) in the absence or presence of LPS (25 ng/ml). β-actin protein levels were detected to serve as an indicator for equal sample loading. FIG. 4B is a bar graph illustrating media levels of PGE2 measured by ELISA at 24 hours. FIG. 4C is a digital image illustrating MMP-1 protein levels detected by Western blot analysis in monocyte cultures following incubation with indomethacin for 30 minutes prior to the addition of LPS, HMW-uPA, plasmin or PGE2 (1 μM).

plasmin
phosphorylation of p38 [1]: induced increases
protein levels of MMP-1 ([2]; LPS (25 ng/ml) stimulated monocytes, indicated concentrations, FIG. 1A / 2B): dose-dependent increase
induction of MMP-1 protein ([2]; unstimulated (control) monocytes, no LPS): did not induce MMP-1
phosphorylation of ERK1/2 [3]: induced increases
LPS-induced COX-2 protein level [4]: increased
PGE2 levels in monocyte culture supernatants [5]: increased PGE2 levels
